Laboratory results reported in US20060069132A1, “Azolecarboxamide herbicides” (priority 2004, published 2006).

Key:
blackgrass = test: Test B postemergence herbicide test; type: in vivo, Alopecurus myosuroides
Outline: (§1)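 Each value is a visual 0–100 response rating taken against controls 13 to 15 days after treatment in the greenhouse. Plants received formulated chemical postemergence at the 1- to 4-leaf stage or, in flooded paddy, at the 2-leaf stage.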

ducksalad = test: Test B flooded paddy test; type: in vivo, Heteranthera limosa; conditions: 1000 g ai/ha, scale 0 to 100 (0 no effect, 100 complete control)
Outline: as §1

wild oat = test: Test B postemergence herbicide test; type: in vivo, Avena fatua
Outline: as §1

rice = test: Test B flooded paddy test; type: in vivo, Oryza sativa; conditions: 1000 g ai/ha, scale 0 to 100 (0 no effect, 100 complete control)
Outline: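 Greenhouse test; postemergence application to plants at 1–4 leaves (2–18 cm); paddy species at 2 leaves; evaluated visually vs controls at 13–15 days; scale 0–100 (100 = complete control).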

morningglory = test: Test B pre-/postemergence herbicide test; type: in vivo, Ipomoea coccinea
Outline: (§2)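 Evaluation is visual, comparing treated with control plants on a scale where 0 means no effect and 100 means full control. Treatments were preemergence, or postemergence on seedlings 2–18 cm tall, and held 13–15 days in the greenhouse.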

wheat = test: Test B postemergence herbicide test; type: in vivo, Triticum aestivum; parameters: key to Wheat plant response rating: 0 = no effect, 100 = complete control
Outline: as §1

velvetleaf = test: Test B pre-/postemergence herbicide test; type: in vivo, Abutilon theophrasti
Outline: (§3)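 Greenhouse pot assay with simultaneous preemergence (treated seed) and postemergence (2–18 cm seedlings) applications of surfactant-containing, non-phytotoxic solvent formulations. Response scored visually 13–15 days later on a 0–100 scale, 100 meaning complete control.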

cocklebur = test: Test B pre-/postemergence herbicide test; type: in vivo, Xanthium strumarium
Outline: as §2

corn = test: Test B pre-/postemergence herbicide test; type: in vivo, Zea mays
Outline: as §3

barnyardgrass [1] = test: Test B flooded paddy test; type: in vivo, Echinochloa crus-galli; conditions: 1000 g ai/ha, scale 0 to 100 (0 no effect, 100 complete control)
Outline: as §1

Surinam grass = test: Test B pre-/postemergence herbicide test; type: in vivo, Urochloa decumbens
Outline: as §3

[2] = test system: small flower umbrella sedge; test: Test B flooded paddy test; type: in vivo, Cyperus difformis; conditions: 1000 g ai/ha, scale 0 to 100 (0 no effect, 100 complete control)
Outline: as §1

barnyardgrass [3] = test: Test B pre-/postemergence herbicide test; type: in vivo, Echinochloa crus-galli
Outline: as §2

lambsquarters = test: Test B pre-/postemergence herbicide test; type: in vivo, Chenopodium album
Outline: as §3

large crabgrass = test: Test B pre-/postemergence herbicide test; type: in vivo, Digitaria sanguinalis
Outline: as §3

[4] = postemergence, 125 g ai/ha; visual rating, scale 0 (no effect) to 100 (complete control)
[5] = postemergence, 500 g ai/ha; visual rating, scale 0 (no effect) to 100 (complete control)
[6] = 500 g ai/ha; visual rating 0-100, 0 no effect, 100 complete control; preemergence
[7] = preemergence, 125 g ai/ha; 0 to 100 scale, 0 is no effect, 100 is complete control
[8] = 125 g ai/ha; visual rating, scale 0 (no effect) to 100 (complete control); postemergence
[9] = postemergence, 500 g ai/ha; scale 0 to 100, 0 is no effect, 100 is complete control
[10] = 125 g ai/ha; 0 = no effect, 100 = complete control; preemergence
[11] = 500 g ai/ha; visual rating, 0 = no effect, 100 = complete control; preemergence

With `CCn1nc(C(C)(C)C)cc1C(=O)Nc1cccc(OCCCF)c1` [Compound 138] the “Blackgrass plant response rating” value (blackgrass; [4]) was 0, the “Blackgrass plant response rating” value (blackgrass; [5]) was 20 and the “Ducksalad plant response rating” value (ducksalad; visual rating, 13 to 15 days) was 80. For the same compound, the “Oat, Wild plant response rating” value (wild oat; [4]) was 20, the “Oat, Wild plant response rating” value (wild oat; [5]) was 30 and the “Rice plant response rating” value (rice; visual rating, 13 to 15 days) was 50. For the same compound, the “Plant response rating, Morningglory” value (morningglory; [6]) was 20, the “Morningglory plant response rating” value (morningglory; [4]) was 20 and the “Morningglory plant response rating” value (morningglory; [5]) was 60. The “Plant response rating, Morningglory” value (morningglory; [7]) was 0, the “Wheat plant response rating” value (wheat; [4]) was 20 and the “Wheat plant response rating” value (wheat; [5]) was 30. The “Plant response rating, Velvetleaf” value (velvetleaf; [6]) was 40, the “Velvetleaf plant response rating” value (velvetleaf; [4]) was 20 and the “Velvetleaf plant response rating” value (velvetleaf; [5]) was 50. For the same compound, the “Plant response rating, Velvetleaf” value (velvetleaf; [7]) was 0, the “Plant response rating, Cocklebur” value (cocklebur; [6]) was 10 and the “Cocklebur plant response rating” value (cocklebur; [4]) was 40. For the same compound, the “Cocklebur plant response rating” value (cocklebur; [5]) was 90, the “Plant response rating, Cocklebur” value (cocklebur; [7]) was 0 and the “Plant response rating, Corn” value (corn; [6]) was 10. For the same compound, the “Corn plant response rating” value (corn; [4]) was 20, the “Corn plant response rating” value (corn; [5]) was 30 and the “Plant response rating, Corn” value (corn; [7]) was 0. For the same compound, the “Barnyardgrass plant response rating” value (barnyardgrass [1]; visual rating, 13 to 15 days) was 10, the “Plant response rating, Surinam Grass” value (Surinam grass; [6]) was 30 and the “Surinam Grass plant response rating” value (Surinam grass; [4]) was 20. The “Surinam Grass plant response rating” value (Surinam grass; [5]) was 30, the “Plant response rating, Surinam Grass” value (Surinam grass; [7]) was 0 and the “Sedge, Umbrella plant response rating” value ([2]; visual rating, 13 to 15 days) was 80. For the same compound, the “Plant response rating, Barnyardgrass” value (barnyardgrass [3]; [6]) was 70, the “Barnyardgrass plant response rating” value (barnyardgrass [3]; [4]) was 10 and the “Barnyardgrass plant response rating” value (barnyardgrass [3]; [5]) was 20. For the same compound, the “Plant response rating, Barnyardgrass” value (barnyardgrass [3]; [7]) was 10, the “Plant response rating, Lambsquarters” value (lambsquarters; [6]) was 100 and the “Lambsquarters plant response rating” value (lambsquarters; [4]) was 80. The “Lambsquarters plant response rating” value (lambsquarters; [5]) was 90, the “Plant response rating, Lambsquarters” value (lambsquarters; [7]) was 0 and the “Plant response rating, Crabgrass, Large” value (large crabgrass; [6]) was 100. For the same compound, the “Crabgrass, Large plant response rating” value (large crabgrass; [4]) was 20, the “Crabgrass, Large plant response rating” value (large crabgrass; [5]) was 20 and the “Plant response rating, Crabgrass, Large” value (large crabgrass; [7]) was 40.

In the case of `CCn1nc(C(C)(C)C)cc1C(=O)Nc1ccc(OC)c(OC)c1` [Compound 298], the “Blackgrass plant response rating” value (blackgrass; [8]) is reported as 20, the “Blackgrass plant response rating” value (blackgrass; [9]) is reported as 50 and the “Ducksalad plant response rating” value (ducksalad) is reported as 90. For the same compound, the “Oat, Wild plant response rating” value (wild oat; [8]) was 30, the “Oat, Wild plant response rating” value (wild oat; [9]) was 40 and the “Rice plant response rating” value (rice) was 80. The “Morningglory plant response rating (0 to 100 scale)” value (morningglory; [10]) was 10, the “Morningglory plant response rating” value (morningglory; [8]) was 60 and the “Plant response rating, Morningglory” value (morningglory; [11]) was 40. The “Morningglory plant response rating” value (morningglory; [9]) was 70, the “Wheat plant response rating” value (wheat; [8]) was 20 and the “Wheat plant response rating” value (wheat; [9]) was 30. For the same compound, the “Velvetleaf plant response rating” value (velvetleaf; [8]) was 60, the “Plant response rating, Velvetleaf” value (velvetleaf; [11]) was 60 and the “Velvetleaf plant response rating” value (velvetleaf; [9]) was 60. For the same compound, the “Cocklebur plant response rating (0 to 100 scale)” value (cocklebur; [10]) was 0, the “Cocklebur plant response rating” value (cocklebur; [8]) was 20 and the “Plant response rating, Cocklebur” value (cocklebur; [11]) was 0. For the same compound, the “Cocklebur plant response rating” value (cocklebur; [9]) was 50, the “Corn plant response rating (0 to 100 scale)” value (corn; [10]) was 30 and the “Corn plant response rating” value (corn; [8]) was 0. The “Plant response rating, Corn” value (corn; [11]) was 70, the “Corn plant response rating” value (corn; [9]) was 10 and the “Barnyardgrass plant response rating” value (barnyardgrass [1]) was 90. For the same compound, the “Surinam Grass plant response rating (0 to 100 scale)” value (Surinam grass; [10]) was 80, the “Surinam Grass plant response rating” value (Surinam grass; [8]) was 20 and the “Plant response rating, Surinam Grass” value (Surinam grass; [11]) was 100. The “Surinam Grass plant response rating” value (Surinam grass; [9]) was 50, the “Sedge, Umbrella plant response rating” value [2] was 70 and the “Barnyardgrass plant response rating (0 to 100 scale)” value (barnyardgrass [3]; [10]) was 70. The “Barnyardgrass plant response rating” value (barnyardgrass [3]; [8]) was 10, the “Plant response rating, Barnyardgrass” value (barnyardgrass [3]; [11]) was 90 and the “Barnyardgrass plant response rating” value (barnyardgrass [3]; [9]) was 50. For the same compound, the “Lambsquarters plant response rating (0 to 100 scale)” value (lambsquarters; [10]) was 100, the “Lambsquarters plant response rating” value (lambsquarters; [8]) was 40 and the “Plant response rating, Lambsquarters” value (lambsquarters; [11]) was 100. For the same compound, the “Lambsquarters plant response rating” value (lambsquarters; [9]) was 90, the “Crabgrass, Large plant response rating (0 to 100 scale)” value (large crabgrass; [10]) was 100 and the “Crabgrass, Large plant response rating” value (large crabgrass; [8]) was 20. The “Plant response rating, Crabgrass, Large” value (large crabgrass; [11]) was 100 and the “Crabgrass, Large plant response rating” value (large crabgrass; [9]) was 70.

With `CCc1nc(C(C)(C)C)sc1C(=O)Nc1cccc(C(=O)NCC2CC2)c1` [Compound 212] the “Blackgrass plant response rating” value (blackgrass; [4]) was 10, the “Blackgrass plant response rating” value (blackgrass; [5]) was 20 and the “Ducksalad plant response rating” value (ducksalad; visual rating, 13 to 15 days) was 80. The “Oat, Wild plant response rating” value (wild oat; [4]) was 20, the “Oat, Wild plant response rating” value (wild oat; [5]) was 20 and the “Rice plant response rating” value (rice; visual rating, 13 to 15 days) was 70. For the same compound, the “Morningglory plant response rating (0 to 100 scale)” value (morningglory; [10]) was 0, the “Plant response rating, Morningglory” value (morningglory; [6]) was 60 and the “Morningglory plant response rating” value (morningglory; [4]) was 10. The “Morningglory plant response rating” value (morningglory; [5]) was 50, the “Wheat plant response rating” value (wheat; [4]) was 10 and the “Wheat plant response rating” value (wheat; [5]) was 20. The “Velvetleaf plant response rating (0 to 100 scale)” value (velvetleaf; [10]) was 10, the “Plant response rating, Velvetleaf” value (velvetleaf; [6]) was 80 and the “Velvetleaf plant response rating” value (velvetleaf; [4]) was 50. For the same compound, the “Velvetleaf plant response rating” value (velvetleaf; [5]) was 70, the “Cocklebur plant response rating (0 to 100 scale)” value (cocklebur; [10]) was 0 and the “Plant response rating, Cocklebur” value (cocklebur; [6]) was 50. For the same compound, the “Cocklebur plant response rating” value (cocklebur; [4]) was 80, the “Cocklebur plant response rating” value (cocklebur; [5]) was 90 and the “Corn plant response rating (0 to 100 scale)” value (corn; [10]) was 10. For the same compound, the “Plant response rating, Corn” value (corn; [6]) was 30, the “Corn plant response rating” value (corn; [4]) was 20 and the “Corn plant response rating” value (corn; [5]) was 40. The “Barnyardgrass plant response rating” value (barnyardgrass [1]; visual rating, 13 to 15 days) was 50, the “Surinam Grass plant response rating (0 to 100 scale)” value (Surinam grass; [10]) was 50 and the “Plant response rating, Surinam Grass” value (Surinam grass; [6]) was 70. The “Surinam Grass plant response rating” value (Surinam grass; [4]) was 30, the “Surinam Grass plant response rating” value (Surinam grass; [5]) was 60 and the “Sedge, Umbrella plant response rating” value ([2]; visual rating, 13 to 15 days) was 70. The “Barnyardgrass plant response rating (0 to 100 scale)” value (barnyardgrass [3]; [10]) was 80, the “Plant response rating, Barnyardgrass” value (barnyardgrass [3]; [6]) was 90 and the “Barnyardgrass plant response rating” value (barnyardgrass [3]; [4]) was 10. For the same compound, the “Barnyardgrass plant response rating” value (barnyardgrass [3]; [5]) was 20, the “Lambsquarters plant response rating (0 to 100 scale)” value (lambsquarters; [10]) was 100 and the “Plant response rating, Lambsquarters” value (lambsquarters; [6]) was 100. For the same compound, the “Lambsquarters plant response rating” value (lambsquarters; [4]) was 90, the “Lambsquarters plant response rating” value (lambsquarters; [5]) was 100 and the “Crabgrass, Large plant response rating (0 to 100 scale)” value (large crabgrass; [10]) was 60. The “Plant response rating, Crabgrass, Large” value (large crabgrass; [6]) was 100, the “Crabgrass, Large plant response rating” value (large crabgrass; [4]) was 10 and the “Crabgrass, Large plant response rating” value (large crabgrass; [5]) was 10.
